Experimental data taken from ChEMBL document CHEMBL1949653, “Novel heterocyclic DPP-4 inhibitors for the treatment of type 2 diabetes” (Bioorg Med Chem Lett, 2012).

Legend:
[1] = biological target: Voltage-gated inwardly rectifying potassium channel KCNH2 (Homo sapiens, UniProt Q12809); assay: Inhibition of human ERG by dofetilide binding assay
[2] = biological target: Cytochrome P450 3A4 (Homo sapiens, UniProt P08684); assay: Inhibition of CYP3A4; assay type: ADME
[3] = biological target: T1, Muscarinic acetylcholine receptor M1 (Homo sapiens, UniProt P11229); assay: Inhibition of M1 receptor
T1 sequence (P11229 whole entry): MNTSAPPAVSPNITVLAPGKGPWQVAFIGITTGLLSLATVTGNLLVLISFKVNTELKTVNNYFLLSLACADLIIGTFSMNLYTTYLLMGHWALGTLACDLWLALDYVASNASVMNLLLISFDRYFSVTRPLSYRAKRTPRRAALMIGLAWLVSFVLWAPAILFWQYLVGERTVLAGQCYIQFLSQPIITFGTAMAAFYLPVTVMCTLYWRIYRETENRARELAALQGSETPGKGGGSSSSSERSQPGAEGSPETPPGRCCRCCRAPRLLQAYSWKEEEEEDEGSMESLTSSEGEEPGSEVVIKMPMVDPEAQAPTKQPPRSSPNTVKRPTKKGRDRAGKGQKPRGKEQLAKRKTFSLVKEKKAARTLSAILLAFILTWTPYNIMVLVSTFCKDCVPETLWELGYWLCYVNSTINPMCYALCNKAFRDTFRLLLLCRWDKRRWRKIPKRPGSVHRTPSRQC

[4] = organism: Rattus norvegicus; assay: animal or person; conditions: po, 5 h, read-out: INH
[5] = Intrinsic clearance in rat liver microsome; assay type: ADME; conditions: liver microsomes, read-out: CLH
[6] = Permeability from apical side to basal side of human Caco2 cells; conditions: Caco-2
[7] = system: Rattus norvegicus; assay: Ex-vivo inhibition of DPP4 in Wistar rat at 3 mg/kg, po up to 8 hrs post-administration; assay type: functional
[8] = Inhibition of Cytochrome P450; assay type: ADME
[9] = AUC in rat; assay type: ADME, organism-based; conditions: plasma
[10] = Oral bioavailability in rat; assay type: ADME, organism-based; conditions: in vivo
[11] = Cmax in rat; assay type: ADME, organism-based; conditions: in vivo
[12] = Clearance in rat at 1 mg/kg, iv; assay type: ADME, organism-based; parameters: dose 1 mg/kg, route intravenous; conditions: in vivo

Sequence of Cytochrome P450 3A4 (P08684 whole entry): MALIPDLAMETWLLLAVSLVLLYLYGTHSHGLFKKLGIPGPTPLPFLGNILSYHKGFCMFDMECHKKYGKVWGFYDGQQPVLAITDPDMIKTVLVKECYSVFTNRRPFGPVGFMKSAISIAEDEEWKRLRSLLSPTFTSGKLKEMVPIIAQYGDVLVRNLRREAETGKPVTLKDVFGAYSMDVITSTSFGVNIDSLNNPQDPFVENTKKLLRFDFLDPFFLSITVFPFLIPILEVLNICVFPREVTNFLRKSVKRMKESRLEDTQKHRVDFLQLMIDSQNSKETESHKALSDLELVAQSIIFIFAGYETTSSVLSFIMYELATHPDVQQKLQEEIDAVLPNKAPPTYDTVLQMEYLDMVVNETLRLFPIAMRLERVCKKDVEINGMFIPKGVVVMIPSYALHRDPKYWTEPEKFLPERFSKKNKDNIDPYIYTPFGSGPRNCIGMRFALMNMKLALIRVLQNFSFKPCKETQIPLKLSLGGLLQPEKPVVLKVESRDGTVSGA
Sequence of Voltage-gated inwardly rectifying potassium channel KCNH2 (Q12809 whole entry): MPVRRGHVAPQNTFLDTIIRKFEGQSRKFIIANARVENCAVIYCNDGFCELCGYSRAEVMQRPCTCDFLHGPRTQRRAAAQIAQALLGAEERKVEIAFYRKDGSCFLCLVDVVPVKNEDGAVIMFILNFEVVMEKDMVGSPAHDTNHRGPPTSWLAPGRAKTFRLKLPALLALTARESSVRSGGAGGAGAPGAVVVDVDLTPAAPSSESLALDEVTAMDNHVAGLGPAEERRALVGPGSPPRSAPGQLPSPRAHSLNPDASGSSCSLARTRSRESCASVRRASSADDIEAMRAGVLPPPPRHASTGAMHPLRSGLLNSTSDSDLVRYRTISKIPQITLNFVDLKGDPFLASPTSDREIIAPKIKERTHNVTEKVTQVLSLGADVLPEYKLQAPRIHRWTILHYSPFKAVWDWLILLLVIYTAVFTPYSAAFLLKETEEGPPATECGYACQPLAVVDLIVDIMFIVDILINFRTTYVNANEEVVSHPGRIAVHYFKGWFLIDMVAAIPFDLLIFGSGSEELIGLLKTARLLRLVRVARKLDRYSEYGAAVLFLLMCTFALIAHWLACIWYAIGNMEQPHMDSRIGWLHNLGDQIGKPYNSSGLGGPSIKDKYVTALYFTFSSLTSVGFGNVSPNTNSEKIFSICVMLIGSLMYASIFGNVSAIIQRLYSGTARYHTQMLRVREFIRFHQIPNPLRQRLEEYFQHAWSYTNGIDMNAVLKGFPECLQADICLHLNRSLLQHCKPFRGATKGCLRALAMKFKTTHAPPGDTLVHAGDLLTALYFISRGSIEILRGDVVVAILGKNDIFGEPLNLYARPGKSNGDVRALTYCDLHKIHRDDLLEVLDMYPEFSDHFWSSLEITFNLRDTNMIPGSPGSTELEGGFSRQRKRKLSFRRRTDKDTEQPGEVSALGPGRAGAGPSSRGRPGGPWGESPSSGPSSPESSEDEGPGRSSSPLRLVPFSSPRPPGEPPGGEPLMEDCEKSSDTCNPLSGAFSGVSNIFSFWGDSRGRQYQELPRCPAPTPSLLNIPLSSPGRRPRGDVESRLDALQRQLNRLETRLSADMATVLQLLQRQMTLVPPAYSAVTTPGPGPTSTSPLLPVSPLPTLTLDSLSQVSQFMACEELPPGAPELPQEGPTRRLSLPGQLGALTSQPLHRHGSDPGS

Row | IC50 [3] [µM] | SMILES | also measured
1 | > 10 | CC#CCn1c(N2CCCNCC2)c(C#N)c2c1c(=O)n(Cc1ncc3ccccc3c1C#N)c(=O)n2C | IC50 [1]: 12 µM
2 | > 10 | Cn1cnc2c(C#N)c(N3CCNCC3)n(Cc3ccccc3)c2c1=O | –
3 | > 10 | Cn1cnc2c(C#N)c(N3CCC[C@H](N)C3)n(Cc3ccccc3)c2c1=O | –
4 | > 10 | CC#CCn1c(N2CCC[C@@H](N)C2)c(C#N)c2ncn(CC(=O)c3cccc(OC)c3)c(=O)c21 | –
5 | > 10 | CC#CCn1c(N2CCC[C@H](N)C2)c(C#N)c2ncn(Cc3ccnc4ccccc34)c(=O)c21 | –
6 | > 10 | CC#CCn1c(N2CCC[C@H](N)C2)c(C#N)c2ncn(Cc3nccc4ccccc34)c(=O)c21 | –
7 | > 10 | CC(C)=CCn1c(N2CCC[C@H](N)C2)c(C#N)c2ncn(Cc3nc(C)c4ccccc4n3)c(=O)c21 | –
8 | > 10 | CC(C)=CCn1c(N2CCCNCC2)c(C#N)c2ncn(Cc3nccc4ccccc34)c(=O)c21 | –
9 | > 10 | CC#CCn1c(N2CCCNCC2)c(C#N)c2ncn(Cc3nc(C)c4ccccc4n3)c(=O)c21 | Papp A→B [6]: 1.7 ×10⁻⁶ cm/s
10 | > 10 | COc1cccc(C(=O)Cn2c(=O)c3c(c(C#N)c(N4CCC[C@H](N)C4)n3Cc3ccccc3)n(C)c2=O)c1 | –
11 | > 10 | Cn1c(=O)n(Cc2nccc3ccccc23)c(=O)c2c1c(C#N)c(N1CCC[C@H](N)C1)n2Cc1ccccc1 | IC50 [1]: 2.8 µM; IC50 [2]: ≤ 3 µM
12 | > 10 | CC(C)=CCn1c(N2CCC[C@H](N)C2)c(C#N)c2c1c(=O)n(Cc1nccc3ccccc13)c(=O)n2C | –
13 | > 10 | CC(C)=CCn1c(N2CCC[C@H](N)C2)c(C#N)c2c1c(=O)n(Cc1nc(C)c3ccccc3n1)c(=O)n2C | IC50 [1]: 6.7 µM; IC50 [2]: ≤ 3 µM
14 | > 10 | CC#CCn1c(N2CCC[C@H](N)C2)c(C#N)c2c1c(=O)n(CC(=O)c1cccc(OC)c1)c(=O)n2C | –
15 | > 10 | CC#CCn1c(N2CCC[C@H](N)C2)c(C#N)c2c1c(=O)n(Cc1nccc3ccccc13)c(=O)n2C | IC50 [1]: 28.2 µM
16 | > 10 | CC#CCn1c(N2CCC[C@H](N)C2)c(C#N)c2c1c(=O)n(Cc1nc(C)c3ccccc3n1)c(=O)n2C | IC50 [1]: > 30 µM
17 | > 10 | CC(C)=CCn1c(N2CCCNCC2)c(C#N)c2c1c(=O)n(Cc1cn3ccccc3n1)c(=O)n2C | IC50 [2]: ≤ 3 µM
18 | > 10 | CC(C)=CCn1c(N2CCCNCC2)c(C#N)c2c1c(=O)n(Cc1ncc3ccccc3c1C#N)c(=O)n2C | IC50 [1]: 1.8 µM; IC50 [2]: ≤ 3 µM
19 | > 10 | CC#CCn1c(N2CCCNCC2)c(C#N)c2c1c(=O)n(Cc1nc(C)c3ccccc3n1)c(=O)n2C | –
20 | > 10 | CC#CCn1c(N2CCCNCC2)c(C#N)c2c1c(=O)n(Cc1c(C#N)cnc3ccccc13)c(=O)n2C | IC50 [2]: ≥ 10 µM; IC50 [8]: > 10 µM

The remaining lines, values behind:

Row | SMILES | IC50 [3] [µM] | also measured
21 | CC(C)=CCn1c(N2CCCNCC2)c(C#N)c2c1c(=O)n(Cc1c(C#N)cnc3ccccc13)c(=O)n2C | > 10 | IC50 [1]: 0.9 µM; IC50 [2]: ≤ 3 µM
22 | COc1cccc(C(=O)Cn2cnc3c(C#N)c(N4CCNCC4)n(Cc4ccccc4)c3c2=O)c1 | > 10 | –
23 | CC#CCn1c(N2CCNCC2)c(C#N)c2ncn(CC(=O)c3cccc(OC)c3)c(=O)c21 | > 10 | –
24 | COc1cccc(C(=O)Cn2cnc3c(C#N)c(N4CCNCC4)n(CC=C(C)C)c3c2=O)c1 | > 10 | –
25 | COc1cccc(C(=O)Cn2cnc3c(C#N)c(N4CCC[C@@H](N)C4)n(Cc4ccccc4)c3c2=O)c1 | > 10 | –
26 | COc1cccc(C(=O)Cn2cnc3c(C#N)c(N4CCC[C@H](N)C4)n(Cc4ccccc4)c3c2=O)c1 | > 10 | –
27 | N#Cc1c(N2CCC[C@H](N)C2)n(Cc2ccccc2)c2c(=O)n(Cc3ccnc4ccccc34)cnc12 | > 10 | –
28 | CC#CCn1c(N2CCC[C@H](N)C2)c(C#N)c2ncn(CC(=O)c3cccc(OC)c3)c(=O)c21 | > 10 | –
29 | COc1cccc(C(=O)Cn2cnc3c(C#N)c(N4CCC[C@@H](N)C4)n(CC=C(C)C)c3c2=O)c1 | > 10 | –
30 | COc1cccc(C(=O)Cn2cnc3c(C#N)c(N4CCC[C@H](N)C4)n(CC=C(C)C)c3c2=O)c1 | > 10 | –
31 | CC(C)=CCn1c(N2CCC[C@H](N)C2)c(C#N)c2ncn(Cc3ccnc4ccccc34)c(=O)c21 | > 10 | –
32 | CC(C)=CCn1c(N2CCC[C@H](N)C2)c(C#N)c2ncn(Cc3nccc4ccccc34)c(=O)c21 | > 10 | inhibition in vivo at 3 mg/kg [4]: 60%
33 | CC(C)=CCn1c(N2CCC[C@H](N)C2)c(C#N)c2ncn(Cc3ncc4ccccc4n3)c(=O)c21 | > 10 | CLint scaled [5]: 67 mL/min/kg
34 | CC(C)=CCn1c(N2CCC[C@H](N)C2)c(C#N)c2ncn(C)c(=O)c21 | > 10 | –
35 | N#Cc1c(N2CCCNCC2)n(Cc2ccccc2)c2c(=O)n(Cc3nccc4ccccc34)cnc12 | > 10 | –
36 | CC#CCn1c(N2CCCNCC2)c(C#N)c2ncn(Cc3nccc4ccccc34)c(=O)c21 | > 10 | –
37 | CC#CCn1c(N2CCCNCC2)c(C#N)c2ncn(Cc3ncc4ccccc4n3)c(=O)c21 | > 10 | Papp A→B [6]: 0.6 ×10⁻⁶ cm/s
38 | Cn1c(=O)c2c(c(C#N)c(N3CCC[C@H](N)C3)n2Cc2ccccc2)n(C)c1=O | > 10 | –
39 | COc1cccc(C(=O)Cn2c(=O)c3c(c(C#N)c(N4CCC[C@H](N)C4)n3CC=C(C)C)n(C)c2=O)c1 | > 10 | IC50 [1]: 1.6 µM; IC50 [2]: ≤ 3 µM
40 | CC(C)=CCn1c(N2CCC[C@H](N)C2)c(C#N)c2c1c(=O)n(Cc1cnc3ccccc3n1)c(=O)n2C | > 10 | IC50 [2]: ≤ 3 µM
41 | CC(C)=CCn1c(N2CCC[C@H](N)C2)c(C#N)c2c1c(=O)n(Cc1ncccc1C#N)c(=O)n2C | > 10 | IC50 [1]: 16.9 µM; IC50 [2]: ≤ 3 µM
42 | CC#CCn1c(N2CCC[C@@H](N)C2)c(C#N)c2c1c(=O)n(Cc1nc(C)c3ccccc3n1)c(=O)n2C | > 10 | IC50 [1]: 21.7 µM
43 | COc1cccc(C(=O)Cn2c(=O)c3c(c(C#N)c(N4CCCNCC4)n3CC=C(C)C)n(C)c2=O)c1 | > 10 | IC50 [1]: 1.1 µM; IC50 [2]: ≤ 3 µM
44 | CC(C)=CCn1c(N2CCCNCC2)c(C#N)c2c1c(=O)n(Cc1nccc3ccccc13)c(=O)n2C | > 10 | –
45 | CC(C)=CCn1c(N2CCCNCC2)c(C#N)c2c1c(=O)n(Cc1nc(C)c3ccccc3n1)c(=O)n2C | > 10 | IC50 [2]: ≤ 3 µM
46 | CC#CCn1c(N2CCCNCC2)c(C#N)c2c1c(=O)n(Cc1nccc3ccccc13)c(=O)n2C | > 10 | inhibition in vivo at 3 mg/kg [7]: ≥ 70%
47 | CC#CCn1c(N2CCC[C@@H](N)C2)nc2c1c(=O)n(Cc1nc(C)c3ccccc3n1)c(=O)n2C [LINAGLIPTIN] | – | AUC [9]: 0.185 µM·h; Papp A→B [6]: 0.8 ×10⁻⁶ cm/s; bioavailability [10]: 9%; Cmax [11]: 21 nM; clearance [12]: 34 mL/min/kg
